Data: publication PMC12543283, “TastepepAI: An artificial intelligence platform for taste peptide de novo design” (PLOS Computational Biology, 2025)
Ends that are not written are not given here.

How the values were obtained:
[1] = system: human embryonic kidney cells (HEK293T)
[2] = system: human bronchial epithelial cells (BEAS-2B)
[3] = system: human pancreatic ductal epithelial cells (HPNE)
Method: The cytotoxicity of 73 synthetic peptides was evaluated using four human cell lines: human pancreatic ductal epithelial cells (HPNE), human embryonic kidney cells (HEK293T), human umbilical vein endothelial cells (HUVEC), and human bronchial epithelial cells (BEAS-2B). When cell density reached 70% confluence, the complete culture medium was replaced with serum-free maintenance medium, and peptides were added at a final concentration of 100 μM for 36 h. Control groups received only serum-free maintenance medium without peptides. Cell proliferation was assessed using the CCK-8 assay kit (Solarbio, CA1210) according to the manufacturer’s instructions.

[4] = Electronic tongue analysis (Taste-Sensing System SA 402B); design: unit not given here; settings: reference solution 30 mM KCl + 0.3 mM tartaric acid as baseline, first measurement excluded; for Umami: sensor AAE; for Umami / Bitter / Sweet: detection threshold 0, room temperature; for Umami / Bitter / Sour / Salty: four replicates; for Sour: detection threshold -13, room temperature; for Salty: detection threshold -6, room temperature; for Sweet: measured five times
How it was run: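 Samples were tested at 0.1 and 1.0 mg/mL on an SA 402B e-tongue fitted with sourness, saltiness, bitterness, sweetness and umami sensors, with 30 mM KCl/0.3 mM tartaric acid as reference and baseline. Thresholds were −13 for sour, −6 for salty and 0 for the rest. Runs at room temperature: four replicates, five for sweetness, first reading discarded.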

[5] = system: human umbilical vein endothelial cells (HUVEC)

| Substance | Average cell viability, HEK293T [1] | Cell viability, HEK293T, Data1 [1] | Cell viability, HEK293T, Data2 [1] | Cell viability, HEK293T, Data3 [1] | Average cell viability, BEAS-2B [2] | Cell viability, BEAS-2B, Data1 [2] | Cell viability, BEAS-2B, Data2 [2] | Cell viability, BEAS-2B, Data3 [2] | Average cell viability, HPNE [3] | Cell viability, HPNE, Data1 [3] | Cell viability, HPNE, Data2 [3] | Cell viability, HPNE, Data3 [3] | Umami ([4]; peptide 0.1 mg/mL) | Umami ([4]; peptide 1 mg/mL) | Bitter ([4]; sensor C00, peptide 0.1 mg/mL) | Bitter ([4]; sensor C00, peptide 1 mg/mL) | Sour ([4]; sensor CA0, peptide 0.1 mg/mL) | Sour ([4]; sensor CA0, peptide 1 mg/mL) | Salty ([4]; sensor CT0, peptide 0.1 mg/mL) | Salty ([4]; sensor CT0, peptide 1 mg/mL) | other results |
| --- | --- | --- | --- | --- | --- | --- | --- | --- | --- | --- | --- | --- | --- | --- | --- | --- | --- | --- | --- | --- | --- |
| EFPEQN [TaPep17] | 98.68 | 94.45 | 102.97 | 98.61 | 109.94 | 112.36 | 107.58 | 109.87 | 92.31 | 86.66 | 92.25 | 98.04 | 1.17 | -5.94 | 7.25 | 3.52 | -2.22 | 14.54 | -21.65 | -0.53 | Sweet ([4]; sensor GL1, peptide 0.1 mg/mL): 5.23; Sweet ([4]; sensor GL1, peptide 1 mg/mL): -5.15; Average cell viability, HUVEC [5]: 96.70; Cell viability, HUVEC, Data1 [5]: 94.76; Cell viability, HUVEC, Data2 [5]: 94.12; Cell viability, HUVEC, Data3 [5]: 101.22 |
| EKGVQ [TaPep64] | 103.19 | 103.53 | 102.87 | 103.15 | 103.99 | 103.09 | 103.59 | 105.28 | 98.34 | 89.85 | 95.04 | 110.12 | 1.91 | -4.02 | 7.39 | 3.04 | -4.25 | 9.90 | -21.79 | 10.50 | Sweet ([4]; sensor GL1, peptide 0.1 mg/mL): 4.85; Sweet ([4]; sensor GL1, peptide 1 mg/mL): -4.54; Average cell viability, HUVEC [5]: 104.98; Cell viability, HUVEC, Data1 [5]: 101.54; Cell viability, HUVEC, Data2 [5]: 110.56; Cell viability, HUVEC, Data3 [5]: 102.82 |
| EPKVLV [TaPep54] | 102.24 | 103.15 | 102.49 | 101.07 | 102.43 | 95.01 | 108.18 | 104.09 | 100.23 | 115.91 | 95.44 | 89.35 | 3.06 | -3.47 | 7.63 | 2.50 | -7.11 | 8.51 | -20.20 | 10.59 | Sweet ([4]; sensor GL1, peptide 0.1 mg/mL): 9.28; Sweet ([4]; sensor GL1, peptide 1 mg/mL): -6.29; Average cell viability, HUVEC [5]: 110.64; Cell viability, HUVEC, Data1 [5]: 113.84; Cell viability, HUVEC, Data2 [5]: 114.72; Cell viability, HUVEC, Data3 [5]: 103.38 |
